# Assay results: patent US10987343B2, “Compositions and methods for treating pulmonary diseases” (CASE WESTERN RESERVE UNIVERSITY, priority 2015, dated 2021)
# Columns and labels:
# CF mice [1] = test: Pulmonary mechanics of CF mice by forced oscillation technique (FlexiVent) after treatment with AGTR2 blocker; assay type: in vivo; settings: 2 mg/kg per day subcutaneous, 5 days per week, age 3 to 16 weeks, assessed at 16 weeks, 2 mg/kg/day
# From the text: AGTR2 knockout mice (AT KO; dark grey bars) are indistinguishable from WT mice.
# We recently used a forced mechanical oscillation procedure to evaluate pulmonary mechanics in CF mice (DF508 congenic C57bl/6). We determined that CF mice have decreased compliance and increased elastance of their overall respiratory system, along with altered airway tissue elastance, damping, and static compliance (FIG. 1). […] Taken together, these findings indicate increased impedance of the small airways in CF mice, as differences in CF mouse pulmonary mechanics were confined to the peripheral tissues, which include the distal airways and lung parenchyma itself. This is consistent with the pulmonary phenotype of CF patients, where significant increases in small airways resistance may occur even in patients with normal spirometry.
# (§1) Drugs exist that are designed to specifically block the AGTR2 receptor, and we used one of these drugs to determine whether the same benefits may be achievable through pharmaceutical intervention. Briefly, CF mice were treated via subcutaneous injection of EMA200 (PD123319), available from Sigma Pharmaceuticals), at a dose of 2 mg/kg per day. The mice were treated from age 3 weeks through adulthood (16 weeks), 5 days per week. At 16 weeks, the pulmonary mechanics of the mice were assessed using the forced oscillation technique (FIG. 1).
# CF mice [2] = test: Survival and health of CF mice during the drug study; assay type: in vivo
# Method: as §1
structure (smiles),measurement,setting,value
"Cc1cc(Cn2cnc3c2CC(C(=O)O)N(C(=O)C(c2ccccc2)c2ccccc2)C3)ccc1N(C)C (centres unmarked) [EMA200, 1-(4-Dimethylamino-3-methylphenyl)methyl-5-diphenylacetyl-4,5,6,7-tetrahy-dro-1H-imidazo[4,5-c]-pyridine-6-carboxylic acid]","pulmonary mechanics / all aspects of pulmonary disease (respiratory system compliance and elastance, tissue damping, tissue elastance, static tissue compliance)",CF mice [1],successfully restored/prevented all aspects of pulmonary disease in CF mice
same,"shape parameter (inhalation/exhalation curve shape, K)",CF mice [1],not improved
same,"pulmonary mechanics / all aspects of pulmonary disease (respiratory system compliance and elastance, tissue damping, tissue elastance, static tissue compliance)",CF mice [1]; listed as AGTR2 inhibitor,improved pulmonary mechanics
same,survival of CF mice,"CF mice [2]; 6 CF mice, daily injections, saline controls 5/6 died",all survived
same,general health appearance of CF mice,CF mice [2]; versus control untreated CF mice,appeared much healthier
